Laboratory results reported in paper PMC10180054, “Design, Synthesis and Biological Evaluation of Novel Pleuromutilin Derivatives Containing 6-Chloro-1-R-1H-pyrazolo[3,4-d]pyrimidine-4-amino Side Chain” (Molecules, 2023).
Converted amounts (≈) assume the structure as drawn. Where two headings read alike, the source gives them in different places.

How the values were obtained:
MRSA ATCC 43300 [1] = assay: MIC/MBC by broth dilution (CLSI); format: cell-based, Staphylococcus aureus; conditions: for MIC: MRSA ATCC 43300, broth dilution, 24 h, 37 °C
In short: (§1)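 CLSI broth dilution used twofold compound series from 64 to 0.0625 µg/mL (stocks in water with 2.5% DMSO and 2.5% Tween-80) and a final inoculum of 5 × 10^5 CFU/mL, in triplicate. For MBC, 25 µL from wells without visible growth was plated on MH agar and cultured 24 h at 37 °C.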

S. aureus 144 = assay: MIC/MBC by broth dilution (CLSI); format: cell-based; conditions: Staphylococcus aureus; S. aureus 144 (clinical strain)
In short: as §1

S. aureus AD3 = assay: MIC/MBC by broth dilution (CLSI); format: cell-based; conditions: Staphylococcus aureus; S. aureus AD3 (clinical strain)
In short: as §1

S. aureus ATCC 29213 = assay: MIC/MBC by broth dilution (CLSI); format: cell-based; conditions: Staphylococcus aureus, ATCC29213
In short: as §1

MRSA ATCC 43300 [2] = assay: Constant concentration time–kill curves; format: cell-based, Staphylococcus aureus
Description: Time–kill kinetic assays were performed, which were used to investigate the in vitro bactericidal kinetic effect of compounds 12c, 19c, 22c and tiamulin.
Time–kill curve assays were established with the MIC value to investigate the antibacterial effect of constant drug concentration on MRSA. […] MRSA ATCC 43300 was incubated in MH broth at 37 °C for 4.5 h and diluted to 1 × 10^6 CFU/mL in MH broth. The saline control group was subjected to the same schedule but 0.9% saline water was added instead of the test compound. All the samples were incubated in an oscillating thermostatic at 37 °C, and then 100 μL of the mixture was extracted to 900 μL of sterile saline (0.9%) at 0, 3, 6, 9, 12 and 24 h, respectively. Samples were serially diluted 10-fold in sterile saline (0.9%) and inoculated onto agar plates. The colonies were counted after incubation at 37 °C for 24 h. Three independent experiments were performed according to our previous work. Time–kill curves were constructed by plotting the log10 CFU per millilitre versus time, and the change in bacterial concentration was determined.

MRSA ATCC 43300 [3] = assay: Post-antibiotic effect (PAE); format: cell-based, Staphylococcus aureus
Description: PAE has been considered as pharmacodynamic assistance which provides a reference for the rational formulation of dosing regimen. PAE refers to the temporary suppression of bacterial growth following transient antibiotic treatment. PAE assays were conducted for compounds 12c and 22c.
PAE is calculated from growth curves on the difference in time required for the number (1 log10 CFU/mL) of drug-exposed and unexposed microbes. […] The PAE values of compounds 12c and 22c increased with increasing incubation time.
PAE of compounds 12c and 22c on MRSA ATCC 43300 was determined using MH broth according to our previous work. The final concentration of MRSA was 1 × 10^6 CFU/mL by dilution with MH broth. Compounds 12c, 22c and tiamulin were supplemented in the suspension at a final concentration of 2 × MIC and 4 × MIC, respectively. The negative control group contained untreated MRSA bacterial cells. The test tubes were incubated with a 37 °C constant temperature vibration incubator for 1 and 2 h. After incubation, the test compound was removed from the sample by diluting 1000-fold with the preheated MH broth. Next, 100 μL of suspension from each culture was 10-fold diluted in sterile saline and inoculated on MH agar plates at 0, 2, 4, 6 and 8 h after inoculation. The number of colonies was calculated after incubation at 37 °C for 24 h. The experiments were performed in triplicate.

MRSA ATCC 43300 [4] = assay: Neutropenic murine thigh infection model; format: in vivo; conditions: neutropenic mice, 20 mg/kg, 24 h after dosing, n = 6/group
Description: Therefore, the in vivo efficacy of compounds 12c and 22c were assessed using the murine neutropenic thigh infection model. Mice groups treated with saline and tiamulin were chosen as the negative and positive controls.
Model experiments of neutropenic mouse thigh infection were manipulated as described in the literature. Female, six-week-old, specific-pathogen-free mice weighing approximately 23~26 g were used throughout the study. Mice were rendered neutropenic by injection of cyclophosphamide (Mead Johnson Pharmaceuticals, Evansville, IN) on day 4 (150 mg/kg) and day 1 (100 mg/kg) before the experiment. The neutrophil numbers in mice blood should be <0.1 × 10^9/L [34]. In total, 0.1 mL of MH broth of MRSA (10^7 CFU/mL) was inoculated into each thigh of the neutropenic mice. Mice were divided into 4 groups (6 mice per group), including control (sterile saline), compounds 12c, 22c and tiamulin groups. After 3 h post-infection, the corresponding drugs were injected into each mouse’s thigh. Mice were euthanized following intravenous injection for 24 h. Thigh tissue of each mouse was removed, collected, weighed and homogenized in 3 mL of ice sterile saline. Six ten-fold serial dilutions were performed and 25 μL of the bacterial solution from each tube was plated on MH agar plates. The resulting colonies were counted after 24 h incubation at 37 °C. The protocol for this study was reviewed and approved by the Institutional Animal Care and Use Committee of the South China Agricultural University.

For `C=C[C@]1(C)C[C@@H](OC(=O)CSc2ccc(Nc3nc(Cl)nc4c3cnn4-c3ccc(F)c(F)c3)cc2)[C@]2(C)[C@H](C)CC[C@]3(CCC(=O)[C@H]32)[C@@H](C)[C@@H]1O` [Compound 22c, 22-[4-(6-Chloro-1-(3,4-difluorophenyl)-1H-pyrazolo[3,4-d]pyrimidine-4-yl)amino-Phenylsulfanyl]-22-deoxypleuromutilin], the MIC (MRSA ATCC 43300 [1]) was 0.25/0.25 μg/mL, the MBC (MRSA ATCC 43300 [1]; Staphylococcus aureus, MRSA ATCC 43300, 99.9% of the bacteria killed) was 0.25 µg/mL (≈ 0.333 µM) and the MIC (MRSA ATCC 43300 [1]; Staphylococcus aureus, read-out: MIC) was 0.25 µg/mL (≈ 0.333 µM). For the same compound, the MBC/MIC ratio (MRSA ATCC 43300 [1]; against MRSA) was no more than 2, the MBC (S. aureus 144) was 1 µg/mL (≈ 1.33 µM) and the MIC (S. aureus 144) was 0.5 µg/mL (≈ 0.666 µM). For the same compound, the MBC (S. aureus AD3) was 0.25 µg/mL (≈ 0.333 µM), the MIC (S. aureus AD3) was 0.125 µg/mL (≈ 0.167 µM) and the MBC (S. aureus ATCC 29213; S. aureus ATCC 29213) was 0.5 µg/mL (≈ 0.666 µM). The MIC (S. aureus ATCC 29213; S. aureus ATCC 29213, broth dilution, 24 h, 37 °C) was 0.25 µg/mL (≈ 0.333 µM), the “MRSA killed in time–kill assay” value (MRSA ATCC 43300 [2]; 2 × MIC, 24 h incubation) was 99.99% and the “reduction of MRSA in time–kill assay” value (MRSA ATCC 43300 [2]; 2 × MIC, 24 h incubation) was −4.47 log10 CFU/mL. For the same compound, the “reduction of MRSA in time–kill assay” value (MRSA ATCC 43300 [2]; 4 × MIC) was −5.79 log10 CFU/mL, the “type of bactericidal kinetics” value (MRSA ATCC 43300 [2]; time–kill curves, 1 to 32 × MIC) was “time-dependent” and the PAE (MRSA ATCC 43300 [3]; 2 × MIC, exposure for 1 h) was 0.92 h. It also gave a PAE (MRSA ATCC 43300 [3]; 2 × MIC, exposure for 2 h) of 2.18 h, a PAE (MRSA ATCC 43300 [3]; 4 × MIC, exposure for 1 h) of 0.93 h and a PAE (MRSA ATCC 43300 [3]; 4 × MIC, exposure for 2 h) of 2.68 h. For the same compound, the “reduction of MRSA load in thigh vs growth control” value (MRSA ATCC 43300 [4]) was −0.93 log10 CFU/mL and the melting point was 109 to 113 °C.
